Eleven compounds from US20250230165A1, “HETEROCYCLIC COMPOUNDS FOR USE IN THE TREATMENT OF CANCER” (ARTIOS PHARMA LIMITED, priority 2021, published 2025) can be followed below.

The experiment concerns the target T1, Human Polθ polymerase domain (aa1820-2590) (Homo sapiens, UniProt O75417).
T1 construct: Human Polθ polymerase domain (aa1820-2590) was expressed in E. coli; made in house; host or cells: E. coli
T1 sequence (O75417 1820-2590): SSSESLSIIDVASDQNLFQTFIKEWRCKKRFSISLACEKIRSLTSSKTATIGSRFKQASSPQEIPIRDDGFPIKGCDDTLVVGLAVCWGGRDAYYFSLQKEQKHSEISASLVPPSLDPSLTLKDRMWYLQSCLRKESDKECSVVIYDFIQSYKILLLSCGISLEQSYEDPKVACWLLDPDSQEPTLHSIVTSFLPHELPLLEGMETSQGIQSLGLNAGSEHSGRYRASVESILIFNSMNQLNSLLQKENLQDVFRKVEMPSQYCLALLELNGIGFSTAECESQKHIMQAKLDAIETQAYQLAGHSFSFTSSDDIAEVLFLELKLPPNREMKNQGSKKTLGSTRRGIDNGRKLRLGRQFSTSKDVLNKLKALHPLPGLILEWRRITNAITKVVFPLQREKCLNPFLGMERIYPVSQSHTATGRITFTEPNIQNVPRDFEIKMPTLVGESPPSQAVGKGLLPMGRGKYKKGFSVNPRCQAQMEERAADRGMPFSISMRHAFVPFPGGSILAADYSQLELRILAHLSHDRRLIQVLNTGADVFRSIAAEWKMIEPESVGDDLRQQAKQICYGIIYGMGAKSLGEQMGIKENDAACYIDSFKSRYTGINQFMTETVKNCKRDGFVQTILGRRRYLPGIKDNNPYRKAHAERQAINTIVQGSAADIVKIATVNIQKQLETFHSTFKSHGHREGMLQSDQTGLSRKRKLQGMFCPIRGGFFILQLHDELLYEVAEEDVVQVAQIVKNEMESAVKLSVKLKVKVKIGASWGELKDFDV
Kind of experiment: Polθ Polymerase Domain Kinact/KI Assay (PicoGreen). The format is biochemical. To be noted: 0.8 nM Polθ, 100 nM DNA substrate, kobs vs [I] fit for 2-step covalent inhibitor. The procedure:
Polθ Polymerase Domain Kinact/KI Assay
A PicoGreen assay was used to measure the Kinact and KI values of covalent compounds that inhibit the activity of Polθ in vitro.
Human Polθ polymerase domain (aa1820-2590) was expressed in E. coli, purified, aliquoted and stored at −80° C. until required. Polθ substrate was generated from a 1.2:1 mix of DNA II Short to DNA II Long to give a final concentration of […] substrate in annealing buffer (20 mM Tris pH 7.5, 50 mM NaCl). The substrate was heated in […] aliquots to 95° C. in a heating block for 5 min before the heating block switched off, the reaction left to cool to rt and stored at −20° C. until required.
Assay measurements were performed with 1× buffer comprising 25 mM Tris pH 7.5, 12.5 mM NaCl, […], 5% (v/v) glycerol, 0.01% v/v Triton x-100, 0.1 mg/ml BSA, 1 mM DTT. Test compounds were prepared by dilution in 100% DMSO to give a 12 μM intermediate stock of each (100× final top concentration). 100 nL of 23×1:1.5-fold serial dilutions and a DMSO only control were dispensed using the Tecan dispenser into Greiner 384 well black low volume plates (product code 784076). DMSO concentration was maintained at 1% of the final assay volume by back filling with DMSO.
2× Working stock of substrate (200 nM of DNA substrate and […] dNTPs) and enzyme ([…] PolΘ) were made up in assay buffer. 5 μL/well of both enzyme and substrate 2× solutions were dispensed using a Tempest dispenser (Formulatrix) into assay plates that had been pre-dispensed with compound to give a final assay concentration of 100 nM DNA substrate, […] dNTPs and 0.8 nM Polθ. To stop the reaction, […] of a solution containing 25 mM Tris-HCl pH 7.5 and 20 mM EDTA was added at […] (t=0, 2.5, 5, 7.5, 10, 12.5, 15, 20, 25, 30, 35, 40, 45, 50, 55 and 60 min) using the Tempest's time delay function. The plates were covered during the time course to prevent evaporation. After completing the assay, 5 μL of detection reagent (25 mM Tris-HCl pH 7.5 and 2.5% (v/v) PicoGreen) was dispensed into the wells using a Tempest liquid handler (Formulatrix) and plates subsequently read on the CLARIOstar Plus (BMG Labtech) using the default optical settings for fluorescein and the auto gain/focus settings.
All data analysis was carried out using GraphPad Prism V.8 (GraphPad Software Inc, San Diego, CA) Time course data for each inhibitor concentration was fitted to equation 1 to determine kobs values.^1 Any time points where the control (DMSO alone) reaction was no longer linear were excluded from the analysis. 1) Evaluation of Enzyme Inhibitors in Drug Discovery (Ch9), R. A Copeland, Wiley, 2nd Edition 2013.
A secondary plot of kobs vs [I] is used to determine the Kinact and KI parameters (for a 2-step covalent inhibitor) by fitting to equation 2.^1
The compound `C=CC(=O)N1Cc2nc(CN3C[C@H]4CC(=O)N(c5cc(C(F)(F)F)cc(C)n5)[C@@H]4C(=O)N(C)c4cccc(Cl)c43)cn2CC1C(F)F` (mixture of isomers) [Example 243a, (3aR,11aS)-5-(((S/R)-7-acryloyl-6-(difluoromethyl)-5,6,7,8-tetrahydroimidazo[1,2-a]pyrazin-2-yl)methyl)-6-chloro-10-methyl-1-(6-methyl-4-(trifluoromethyl)pyridin-2-yl)-1,3a,4,5,10,11a-hexahydro-2H-benzo[b]pyrrolo[2,3-f][1,4]diazocine-2,11(3H)-dione] displayed a Kinact/Kl of 1.03e+06 M⁻¹ s⁻¹.
The figure for `C=CC(=O)N1Cc2nc(CN3C[C@H]4CC(=O)N(c5cc(C(F)(F)F)cc(C)n5)[C@@H]4C(=O)N(C)c4cccc(Cl)c43)cn2CC1C(F)F` (mixture of isomers) [Example 243b, (3aR,11aS)-5-(((R/S)-7-acryloyl-6-(difluoromethyl)-5,6,7,8-tetrahydroimidazo[1,2-a]pyrazin-2-yl)methyl)-6-chloro-10-methyl-1-(6-methyl-4-(trifluoromethyl)pyridin-2-yl)-1,3a,4,5,10,11a-hexahydro-2H-benzo[b]pyrrolo[2,3-f][1,4]diazocine-2,11(3H)-dione] is 580000 M⁻¹ s⁻¹; for `C=CC(=O)NC1CCN(CCN2C[C@H]3CC(=O)N(c4cc(C(F)(F)F)cc(C)n4)[C@@H]3C(=O)N(C)c3cccc(Cl)c32)CC1(F)F` (mixture of isomers) [Example 257a, N—((S/R)-1-(2-((3aR,11aS)-6-chloro-10-methyl-1-(6-methyl-4-(trifluoromethyl)pyridin-2-yl)-2,11-dioxo-1,2,3,3a,4,10,11,11a-octahydro-5H-benzo[b]pyrrolo[2,3-f][1,4]diazocin-5-yl)ethyl)-3,3-difluoropiperidin-4-yl)acrylamide] it is 2.17e+06 M⁻¹ s⁻¹; for `C=CC(=O)NC1CCN(CCN2C[C@H]3CC(=O)N(c4cc(C(F)(F)F)cc(C)n4)[C@@H]3C(=O)N(C)c3cccc(Cl)c32)CC1(F)F` (mixture of isomers) [Example 257b, N—((R/S)-1-(2-((3aR,11aS)-6-chloro-10-methyl-1-(6-methyl-4-(trifluoromethyl)pyridin-2-yl)-2,11-dioxo-1,2,3,3a,4,10,11,11a-octahydro-5H-benzo[b]pyrrolo[2,3-f][1,4]diazocin-5-yl)ethyl)-3,3-difluoropiperidin-4-yl)acrylamide] it is 2.56e+06 M⁻¹ s⁻¹.
For the compound `C=CC(=O)N1CCN(CCN2C[C@H]3CC(=O)N(c4cc(C(F)(F)F)cc(C)n4)[C@@H]3C(=O)N(C)c3cccc(Cl)c32)CC1CC#N` (mixture of isomers) [Example 258a, 2-((R/S)-1-acryloyl-4-(2-((3aR,11aS)-6-chloro-10-methyl-1-(6-methyl-4-(trifluoromethyl)pyridin-2-yl)-2,11-dioxo-1,2,3,3a,4,10,11,11a-octahydro-5H-benzo[b]pyrrolo[2,3-f][1,4]diazocin-5-yl)ethyl)piperazin-2-yl)acetonitrile], the Kinact/Kl came out at 1.65e+06 M⁻¹ s⁻¹.
As for `C=CC(=O)N1CCN(CCN2C[C@H]3CC(=O)N(c4cc(C(F)(F)F)cc(C)n4)[C@@H]3C(=O)N(C)c3cccc(Cl)c32)CC1CC#N` (mixture of isomers) [Example 258b, 2-((S/R)-1-acryloyl-4-(2-((3aR,11aS)-6-chloro-10-methyl-1-(6-methyl-4-(trifluoromethyl)pyridin-2-yl)-2,11-dioxo-1,2,3,3a,4,10,11,11a-octahydro-5H-benzo[b]pyrrolo[2,3-f][1,4]diazocin-5-yl)ethyl)piperazin-2-yl)acetonitrile], the figure is 1.53e+06 M⁻¹ s⁻¹; as for `C=CC(=O)N1CCN(CCCN2C[C@H]3CC(=O)N(c4cc(C(F)(F)F)cc(C)n4)[C@@H]3C(=O)N(C)c3cccc(C)c32)CC1C(F)(F)F` (mixture of isomers) [Example 265a, (3aR,11aS)-5-(3-((S/R)-4-acryloyl-3-(trifluoromethyl)piperazin-1-yl)propyl)-6,10-dimethyl-1-(6-methyl-4-(trifluoromethyl)pyridin-2-yl)-1,3a,4,5,10,11a-hexahydro-2H-benzo[b]pyrrolo[2,3-f][1,4]diazocine-2,11(3H)-dione], 3.32e+06 M⁻¹ s⁻¹; as for `C=CC(=O)N1CCN(CCCN2C[C@H]3CC(=O)N(c4cc(C(F)(F)F)cc(C)n4)[C@@H]3C(=O)N(C)c3cccc(C)c32)CC1C(F)(F)F` (mixture of isomers) [Example 265b, (3aR,11aS)-5-(3-((R/S)-4-acryloyl-3-(trifluoromethyl)piperazin-1-yl)propyl)-6,10-dimethyl-1-(6-methyl-4-(trifluoromethyl)pyridin-2-yl)-1,3a,4,5,10,11a-hexahydro-2H-benzo[b]pyrrolo[2,3-f][1,4]diazocine-2,11(3H)-dione], 1.58e+06 M⁻¹ s⁻¹.
In turn, `C=CC(=O)N1CCN(CCCN2C[C@H]3CC(=O)N(c4cc(C(F)(F)F)cc(C)n4)[C@@H]3C(=O)N(C)c3cccc(Cl)c32)CC1CC#N` (mixture of isomers) [Example 267a, 2-((S/R)-1-acryloyl-4-(3-((3aR,11aS)-6-chloro-10-methyl-1-(6-methyl-4-(trifluoromethyl)pyridin-2-yl)-2,11-dioxo-1,2,3,3a,4,10,11,11a-octahydro-5H-benzo[b]pyrrolo[2,3-f][1,4]diazocin-5-yl)propyl)piperazin-2-yl)acetonitrile] returned a Kinact/Kl of 1.24e+06 M⁻¹ s⁻¹.
As for `C=CC(=O)N1CCN(CCCN2C[C@H]3CC(=O)N(c4cc(C(F)(F)F)cc(C)n4)[C@@H]3C(=O)N(C)c3cccc(Cl)c32)CC1CC#N` (mixture of isomers) [Example 267b, 2-((R/S)-1-acryloyl-4-(3-((3aR,11aS)-6-chloro-10-methyl-1-(6-methyl-4-(trifluoromethyl)pyridin-2-yl)-2,11-dioxo-1,2,3,3a,4,10,11,11a-octahydro-5H-benzo[b]pyrrolo[2,3-f][1,4]diazocin-5-yl)propyl)piperazin-2-yl)acetonitrile], the figure is 3.03e+06 M⁻¹ s⁻¹; as for `C=C(CN(C)C)C(=O)N[C@@H]1CCc2nc(CN3C[C@H]4CC(=O)N(c5cc(C(F)(F)F)cc(C)n5)[C@@H]4C(=O)N(C)c4cccc(C)c43)cn2C1` (mixture of isomers) [Example 329a, N-((R/S)-2-(((3aR, 11aS)-6,10-dimethyl-1-(6-methyl-4-(tri-fluoromethyl)pyridin-2-yl)-2,11-dioxo-1,2,3,3a,4,10,11,11a-octahydro-5H-benzo [b]pyrrolo[2,3-f][1,4]diazocin-5-yl)methyl)-5,6,7,8-tetrahydro-imidazo[1,2-a]pyridin-6-yl)-2-((dimethyl-amino)methyl)acryl-amide], 1.73e+06 M⁻¹ s⁻¹.
